The results in this text go back to patent US20260232767A1, “INTERLEUKIN-23 RECEPTOR ANTAGONIST PEPTIDES FOR USE IN THE TREATMENT OF PSORIASIS” (Janssen Pharmaceutica NV, priority 2023, published 2026).

The test system of data set [1] is subjects with moderate-to-severe plaque psoriasis. As to the kind of experiment: Treatment disposition, Example 2. The data set is classed as in vivo, human.
Another data set relates to BD-2. Description: Serum BD-2 immunoassay. To be noted: all treatment groups vs placebo; as early as Week 4. The data set is classed as in vivo, human. How it is done:
To evaluate psoriasis relevant systemic biomarkers (Beta-defensin 2 (BD-2), IL-17A, IL-17F, and IL-22), protein concentrations were measured in serum using validated immunoassays. The IL-17A (Catalog #03-0159-00) and IL-17F (Catalog #03-0164-00) assays used are commercially available SMC™-based high sensitivity immunoassays produced by the EMD Millipore Corporation. The manufacturer's protocols were followed and analyzed on the Erenna® instrument platform except for the use of 11 μL Elution Buffer B. While the IL-22 assay is also based on the SMC™ platform and run on the Erenna instrument, the assay was developed internally as a coated plate-based assay. The development and optimization of the BD-2 assay was done on the Meso Scale Discovery on the electrochemiluminescence-based platform, a division of Meso Scale Diagnostics LLC (MSD). For all assays, concentration adjustments were made to values measuring below empirically defined LLOQ or empirically defined ULOQ values. Assay QC verified performance of generated standard curves (average concentration recovery & CV of technical replicates) and control samples (inter-assay plate agreement (CV)).
Serum levels of psoriasis disease biomarkers BD-2, IL-22, IL-17A, and IL-17F relative to baseline were analyzed in patients who received placebo or the compound of Formula (I) and compared to clinical response. […]

Where [2] appears, read: 25 mg BID, Week 16 to Week 52, N=40.
Where [3] appears, read: 25 mg BID, through Week 52, N=41.
[4] abbreviates: 25 mg QD, Week 16 to Week 52, N=35.
Where [5] appears, read: 25 mg QD, through Week 52, N=43.
Setting [6] is: 50 mg QD, through Week 52, N=43.
Where [7] appears, read: 100 mg BID, through Week 52, N=42.
[8] abbreviates: 100 mg QD, Week 16 to Week 52, N=40.
Setting [9] is: 100 mg QD, through Week 52, N=43.
[10] abbreviates: Combined, Week 16 to Week 52, N=227.
[11] abbreviates: Combined, through Week 52, N=247.

SMILES strings stand for the structures.

Regarding `CC(=O)NCCCC[C@@H]1NC(=O)[C@H](Cc2c[nH]c3c(C)cccc23)NC(=O)[C@H]([C@@H](C)O)NC(=O)[C@H](CC(N)=O)NC(=O)[C@@H](NC(C)=O)C(C)(C)SSC(C)(C)[C@@H](C(=O)N[C@@H](Cc2ccc(OCCN)cc2)C(=O)N[C@@H](Cc2ccc3ccccc3c2)C(=O)NC2(C(=O)N[C@@H](CCC(=O)O)C(=O)N[C@@H](CC(N)=O)C(=O)N[C@@H](Cc3cccnc3)C(=O)N(C)CC(N)=O)CCOCC2)NC1=O` [IL-23 receptor antagonist peptide, Ac-[Pen]*-N-T-[W(7-Me)]-[Lys(Ac)]-[Pen]*-Phe[4-(2-aminoethoxy)]-[2-Nal]-[THP]-E-N-[3-Pal]-Sarc-NH2 (*[Pen]-[Pen]* formdisulfidebond)], the “Discontinued: Adverse Event, %” value is “(2.5%)” in data set [1] (setting [2]); “(2.4%)” in data set [1] (setting [3]); “(2.9%)” in data set [1] (setting [4]); “(7.0%)” in data set [1] (setting [5]); “(4.7%)” in data set [1] (setting [6]); “(2.4%)” in data set [1] (setting [7]). Also, the “Discontinued: Adverse Event, %” value is “(2.5%)” in data set [1] (setting [8]), “(4.7%)” in data set [1] (setting [9]), “(1.3%)” in data set [1] (setting [10]) and “(3.6%)” in data set [1] (setting [11]). The “Discontinued: Other Adverse Event, %” value was “(2.5%)” in data set [1] (setting [2]); “(2.4%)” in data set [1] (setting [3]); “(2.9%)” in data set [1] (setting [4]); “(7.0%)” in data set [1] (setting [5]); “(4.7%)” in data set [1] (setting [6]); “(2.4%)” in data set [1] (setting [7]). Besides, the “Discontinued: Other Adverse Event, %” value in data set [1] (setting [8]) is “(2.5%)”; in data set [1] (setting [9]), “(4.7%)”; in data set [1] (setting [10]) it was “(1.3%)”; in data set [1] (setting [11]), “(3.6%)”. Further, the BD-2 serum levels result in the data set on BD-2 was “Statistically significant reduction”.
